Earlier results on two compounds are cited in patent US20200316043A1, “PHARMACEUTICAL COMPOSITION COMPRISING CLEVIDIPINE AND PROCESS FOR PREPARATION THEREOF” (Aurobindo Pharma Ltd., priority 2017, published 2020).

Data set [1] deals with ileal and aortic smooth muscle and cardiac muscle (Homo sapiens, UniProt Q13936). The settings on record: EDTA treatment of ileal and aortic smooth muscle and cardiac muscle.
Sequence of ileal and aortic smooth muscle and cardiac muscle (Q13936 whole entry): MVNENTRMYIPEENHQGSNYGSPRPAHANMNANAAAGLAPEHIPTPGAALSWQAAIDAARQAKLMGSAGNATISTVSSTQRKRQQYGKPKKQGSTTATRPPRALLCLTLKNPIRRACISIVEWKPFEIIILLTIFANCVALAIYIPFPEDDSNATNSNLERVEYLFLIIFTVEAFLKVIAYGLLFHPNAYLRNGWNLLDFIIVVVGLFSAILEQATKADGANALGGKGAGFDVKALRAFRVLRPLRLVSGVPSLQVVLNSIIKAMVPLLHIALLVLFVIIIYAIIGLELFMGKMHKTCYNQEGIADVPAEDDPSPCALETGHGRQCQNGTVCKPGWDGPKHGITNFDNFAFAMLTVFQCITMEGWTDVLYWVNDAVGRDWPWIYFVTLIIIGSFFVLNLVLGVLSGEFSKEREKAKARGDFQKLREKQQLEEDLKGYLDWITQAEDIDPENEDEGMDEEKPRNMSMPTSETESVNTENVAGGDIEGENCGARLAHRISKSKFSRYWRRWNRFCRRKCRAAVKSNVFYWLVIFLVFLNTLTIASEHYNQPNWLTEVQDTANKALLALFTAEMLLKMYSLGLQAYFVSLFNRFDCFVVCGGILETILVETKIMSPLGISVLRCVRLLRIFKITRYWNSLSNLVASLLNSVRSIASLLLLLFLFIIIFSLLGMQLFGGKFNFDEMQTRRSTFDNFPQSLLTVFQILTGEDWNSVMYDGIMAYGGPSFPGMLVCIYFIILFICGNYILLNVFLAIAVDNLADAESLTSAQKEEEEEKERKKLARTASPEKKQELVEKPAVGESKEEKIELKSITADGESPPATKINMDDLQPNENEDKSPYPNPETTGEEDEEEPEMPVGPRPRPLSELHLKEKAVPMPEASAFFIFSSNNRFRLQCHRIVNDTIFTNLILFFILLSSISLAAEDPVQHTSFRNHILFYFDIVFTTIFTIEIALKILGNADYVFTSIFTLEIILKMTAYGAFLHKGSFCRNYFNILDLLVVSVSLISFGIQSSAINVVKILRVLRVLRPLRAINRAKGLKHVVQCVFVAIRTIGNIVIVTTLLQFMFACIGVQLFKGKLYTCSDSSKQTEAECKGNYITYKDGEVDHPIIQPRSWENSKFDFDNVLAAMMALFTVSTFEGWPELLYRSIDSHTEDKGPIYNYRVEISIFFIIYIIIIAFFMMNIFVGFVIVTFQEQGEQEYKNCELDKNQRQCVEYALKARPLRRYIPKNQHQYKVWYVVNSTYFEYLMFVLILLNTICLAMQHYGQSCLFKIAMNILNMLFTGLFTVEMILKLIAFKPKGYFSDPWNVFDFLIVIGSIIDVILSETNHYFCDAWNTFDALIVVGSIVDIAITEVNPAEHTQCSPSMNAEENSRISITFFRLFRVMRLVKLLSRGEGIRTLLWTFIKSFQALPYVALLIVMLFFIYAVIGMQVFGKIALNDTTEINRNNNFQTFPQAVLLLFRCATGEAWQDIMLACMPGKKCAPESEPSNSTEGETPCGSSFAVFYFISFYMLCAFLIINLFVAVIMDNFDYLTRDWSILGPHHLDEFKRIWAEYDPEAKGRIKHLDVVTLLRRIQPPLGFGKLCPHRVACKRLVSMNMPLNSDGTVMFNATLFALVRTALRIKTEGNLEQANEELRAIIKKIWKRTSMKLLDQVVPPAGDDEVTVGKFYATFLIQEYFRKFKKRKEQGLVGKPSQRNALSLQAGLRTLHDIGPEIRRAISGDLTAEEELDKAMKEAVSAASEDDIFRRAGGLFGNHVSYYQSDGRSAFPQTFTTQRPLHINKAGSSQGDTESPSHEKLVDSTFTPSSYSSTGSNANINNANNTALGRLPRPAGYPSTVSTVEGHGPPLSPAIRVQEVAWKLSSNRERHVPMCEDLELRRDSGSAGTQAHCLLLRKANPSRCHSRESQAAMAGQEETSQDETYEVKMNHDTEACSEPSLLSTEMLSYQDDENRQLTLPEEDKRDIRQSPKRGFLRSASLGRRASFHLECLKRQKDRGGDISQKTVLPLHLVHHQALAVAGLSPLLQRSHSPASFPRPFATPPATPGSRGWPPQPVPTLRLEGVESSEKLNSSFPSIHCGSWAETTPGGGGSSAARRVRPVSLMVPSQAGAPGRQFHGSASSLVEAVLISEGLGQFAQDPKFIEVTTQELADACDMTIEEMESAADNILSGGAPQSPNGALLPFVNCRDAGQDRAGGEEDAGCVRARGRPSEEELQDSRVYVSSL

Take `CCCC(=O)OCOC(=O)C1=C(C)NC(C)=C(C(=O)OC)C1c1cccc(Cl)c1Cl` (stereo not drawn) [Clevidipine, butyroxymethyl methyl 4-(2′,3′dichlorophenyl)-1,4-dihydro-2,6-dimethyl-3,5-pyridinedicarboxylate]: the solubility in lipids entry is given as “moderate to high” and the solubility in water result is “low”.
Turning to `O=C(O)CN(CCN(CC(=O)O)CC(=O)O)CC(=O)O` [EDTA, Ethylene Diaminetetraacetic acid], the “reduction of specific [3H] nitrendipine binding” value in data set [1] is 70-95%.
